Here are results for one compound from paper PMC7215935, “GM1 Oligosaccharide Crosses the Human Blood–Brain Barrier In Vitro by a Paracellular Route” (International Journal of Molecular Sciences, 2020).

Data set [1] relates to human brain-like endothelial cells (hBLECs). Put plainly: Direct transport (apical to basolateral, A → B) across the hBLEC monolayer: Pe and Papp. It is filed as in vitro ADME. The procedure: (§1) Prior to the experiments, in order to verify the hBLECs’ monolayer integrity and stability, the permeability parameters were verified as previously reported. Briefly, 1.5 mL Ringer–Hepes solution (RH) (150 mM NaCl, 5.2 mM KCl, 2.2 mM CaCl2, 0.2 mM MgCl26H2O, 6 mM NaHCO3, 5 mM HEPES, pH: 7.4) was added to empty wells of a 12-well plate. Filter insert containing confluent monolayers of hBLECs or not (control) were subsequently placed in the 12-well plate, filled with 0.5 mL RH buffer containing the fluorescent integrity marker LY (50 μM), and then placed on an orbital shaker (150 rpm, Heidolph Titramax 100) at 37 °C in a humidify atmosphere of 95% air/5% CO2. Every 20 min for 1 h, filter inserts were withdrawn from the receiver compartment and placed in the next one. To verify the quantity of LY, at the end of the experiments, aliquots from the donor solution were taken at the end of the experiments and the fluorescence was quantified using a quantification curve of LY as referee. At least three inserts with cells and three without cells were tested in each permeability measurement. The fluorescence was measured using a luminescence spectrometer (LS 50B, Perkin Elmer), using the following excitation/emission wavelength (nm) settings: 432/538. Pe parameters were calculated according to the formulas shown in the Supplementary Information (Equations (7)–(10)). In parallel, as positive control for breakdown of hBLECs, D-mannitol, was used at a concentration of 1.4 M. At this concentration, mannitol induces an osmotic shock, and thus an increase in paracellular permeability.
(§2) Transport experiments were carried out by adding tritium-labeled GM1 or OligoGM1 (1 × 10^6 dpm) to cold GM1 or OligoGM1, respectively, at different concentrations, as specified below.
(§3) To identify and quantify the GM1 or OligoGM1 molecules in every transport experiment, aliquots from apical A (5 μL) and basolateral B (200 μL) compartments were collected at indicated time points and combined with 5 mL of ULTIMA GOLD liquid (PerkinElmer), shaken, and counted for 20 min by liquid scintillation analyzer (TRI-CARB 2100TR, Packard). Resulting radioactivity measures were used to estimate the quantity of the molecules. Experiments were performed on an agitation plate at 37 °C (150 rpm, Heidolph Titramax 100) in a humidify atmosphere of 95% air/5% CO2. At least three inserts with cells were tested in each transport experiment for each condition.
(§4) To examine flux from apical to basolateral compartments (A → B), 1.5 mL RH buffer was added to empty wells of a 12-well plate. Following this, the hBLEC filter was placed in the same 12-well plate and filled with 0.5 mL RH buffer containing 1 × 10^6 dpm of tritiated [^3H]GM1 or [^3H]OligoGM1 plus 50 μM of cold GM1 or OligoGM1 (Figure S3b).
(§5) To establish the time dependence of the transport experiments, hBLEC inserts filled with OligoGM1 were transferred into a new receiver well plate filled with fresh RH buffer every 20 min up to 240 min. The hBLECs’ properties, integrity, and stability were maintained up to 240 min in the transport experiments with RH buffer in the upper and basolateral side (see [28] and Figure S4).
(§6) To establish the dose dependence in the transport experiments, 1 × 10^6 dpm of tritiated [^3H]OligoGM1 plus 5, 10, 50, 100, and 300 μM OligoGM1 solutions were prepared and employed as described above. The hBLECs inserts were transferred into a new RH-filled receiver well plate every 20 min up to 60 min. […]
(§7) To evaluate the possible active transport involvement, the transport of OligoGM1 from apical to basolateral (A → B) compartments was performed at 4 °C, with the aim of inhibiting the active transport mechanism at low temperature. […]

Assay in data set [2]: as above
Format: in vitro ADME, human. As to conditions: human, pH 7.4, 50 μM. The procedure:
as §1, §2, §3, §4, §5, §6, §7

For data set [3], the system named is human brain-like endothelial cells (hBLECs). The description is as above. As to conditions: 300 μM apical, after 240 min. It is filed as in vitro ADME.
Another data set deals with MRPs. The data set is described as follows: ABC transporter competition assay (Caco-2 pump out), CMFDA efflux. As to conditions: Caco-2 cells, 10, 50 and 100 μM, vs control.
The next data set relates to P-gp/BCRP. The data set is described as follows: ABC transporter competition assay (Caco-2 pump out), R123 efflux. As to conditions: Caco-2 cells, 10, 50 and 100 μM, vs control.
In the next data set the test system is hBLECs. Put plainly: Toxicity on hBLECs / monolayer integrity by LY permeability in combination with test substance. Format: cell-based, human. As to conditions: 10, 50, 100 and 300 μM with 50 μM LY, 60 min and over time (20, 40, 60 min). The procedure:
as §1
To evaluate the toxicity of GM1 and OligoGM1, the LY endothelial permeability (Pe) and apparent permeability (Papp) were considered for evaluation of hBLEC monolayer integrity after administration of compounds.
To examine the LY permeability, 1.5 mL of RH buffer was added to empty wells of a 12-well plate, then hBLEC filters were placed in the 12-well plate and filled with 0.5 mL RH buffer containing 50 μΜ LY plus OligoGM1 or GM1 at an appropriate test concentration (from 5 to 300 μΜ). The hBLEC inserts were moved every 20 min to a new RH-filled well up to 60 min. At the end of the incubation period, solutions were collected from apical and basolateral compartments, LY was quantified, and Papp was calculated as reported in the Supplementary Information (Equation (1)) and previously mentioned.

Where two headings read alike, the source gives them in different places.

Description for MRPs: (§8) Briefly, Caco-2 cells in 96-well plates were washed once with RH buffer and incubated for 120 min with 10 µM R123 or for 15 min with 0.5 µM CMFDA. R123 and CMFD are substrates for the major efflux pumps expressed by BBB and intestine cells, i.e., P-gp/BCRP and MRPs, respectively. After the incubation period, Caco-2 cells were washed twice with RH buffer with or without test compounds (OligoGM1 at 10, 50, and 100 µM). The rate out (Kout) of Caco-2 cells for fluorescent dyes was monitored by fluorescence measurement (λex = 501 nm and λem = 538 nm for R123; λex = 485 nm and λem = 538 nm for CMFDA) using a microplate fluorescent reader (BioTek, H1, Vermont, Winooski). The amount of dye expelled from the cells was measured at 37 °C and every 5 min for one hour for R123 and every 2 min for 30 min for CMFDA. The rate out of the dye from cells was calculated as the slope of the curve of the cumulative amount of dye against the time (Kout = ∆pmol⁄∆t) and compared with the value in the presence of test compounds.
Description for P-gp/BCRP: as §8

Take `CC(=O)NC1C(O)CC(OC2C(O)C(OC3C(CO)OC(O)C(O)C3O)OC(CO)C2OC2OC(CO)C(O)C(OC3OC(CO)C(O)C(O)C3O)C2NC(C)=O)(C(=O)O)OC1C(O)C(O)CO` (stereo not drawn) [OligoGM1, β-Gal-(1-3)-β-GalNAc-(1-4)-[α-Neu5Ac-(2-3)]-β-Gal-(1-4)-β-Glc]: the “influence of BSA on rate of A → B transport” value in data set [1] (50 μM, 0.1% (w/v) BSA in apical solution, 60 min) was “No difference in the rate of transport”. Besides, the “slope of linear regression: % of administered nmol in receiving compartment vs time (min)” value in data set [1] (50 μM, 20-240 min, y = slope × x) turned out to be 0.1097. Moreover, in data set [1] (50 μM, hBLECs), the “crossing rate / Pe of OligoGM1 relative to GM1” value is listed as 20 fold. In data set [1] (50 μM, up to 240 min), the “time dependence of A → B transport” value is reported as “linear time dependence”. For the same compound, the “slope of linear regression: nmol in receiving compartment vs concentration (μM)” value in data set [1] (5-300 μM, 60 min, y = slope × x) is given as 0.04352. Further, the “concentration dependence of A → B transport” value in data set [1] (5 to 300 μM, 60 min) is reported as “proportional increase”. The Papp A→B at 60 min, 50 μM was 6.7 ± 0.17 ×10⁻⁶ cm/s in data set [2] (60 min, 4 °C (Figure 6d), read-out: Papp A>B at 4 °C); 8.8 ± 0.24 ×10⁻⁶ cm/s in data set [2] (60 min, 37 °C, temperature experiment (Figure 6d), read-out: Papp A>B at 37 °C); 9.67 ×10⁻⁶ cm/s in data set [2] (after 60 min, hBLEC monolayer, read-out: endothelial permeability Pe (A → B) (converted)). The “concentration in receiving compartment” value in data set [3] is recorded as ~ 25 μM. Moreover, the “share of administered amount in receiving compartment” value in data set [3] (Transfectagro medium) was found to be 25%. The “effect on efflux (Kout) of CMFDA” value in the data set on MRPs was “did not identify any difference”. Besides, the “effect on efflux (Kout) of R123” value in the data set with P-gp/BCRP is “did not identify any difference”. In the data set with hBLECs, the “effect on LY Pe and Papp (toxicity to hBLECs)” value is “no variations of LY Pe and Papp were observed”.
